Experimental data as given in US9050346B2, “Bromodomain inhibitors” (AbbVie Inc., priority 2013, dated 2015).
Marks after values point to notes of the source that are not given here.

Legend:
[1] = system: OPM-2 human multiple myeloma xenograft tumors; assay: OPM-2 xenograft tumor growth inhibition assay; assay type: in vivo, mice; conditions: QDx21; for % TGI: SCID-beige mice; for % TGD (tumor growth delay): endpoint 1000 mm^3
Protocol: The effect of compounds of the examples to inhibit the growth of OPM-2 xenograft tumors implanted in mice was evaluated. A suspension of cancer cells (5×10^6 per 0.1 mL) prepared in RPMI culture medium (Invitrogen, Carlsbad, Calif.) was diluted 1:1 with a solution of Matrigel™ (BD Biosciences, Franklin Lakes, N.J.) and inoculated subcutaneously into the right hind flank of female SCID-beige (Charles River Labs) mice. Randomization into treatment and vehicle control groups (10/group) occurred when the mean tumor volume reached approximately 250 mm^3. Compounds were formulated in 2.5% DMSO, 10% EtOH, 27.5% PEG 400, 60% Phosol 53 MCT. Administration of compound or vehicle was initiated on the day following randomization and continued for 21 days. Tumors were measured twice a week throughout the treatment period using a pair of calipers and tumor volumes were calculated according to the formula V=L×W^2/2 (V: volume, mm^3; L: length, mm. W: width, mm) Tumor growth inhibition was calculated based on the mean tumor volume measured on the first day that the mean volume of the vehicle group exceeded 2000 mm^3 according to the formula % TGI=100-mean tumor volume of treatment group/mean tumor volume of control group x 100.

[2] = system: breast cancer cell line MX-1; assay: MX-1 cell line proliferation assay (3-day, Cell Titer Glo); assay type: cell-based; conditions: Homo sapiens, MX1, MX-1 cells, 72 h, top concentration 3 μM, read-out: Cellular proliferation: EC50
Summary of the method: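 MX-1 cells, 5000/well in RPMI 1640 with 10% FBS, adhered overnight, then treated 3 days with compound at final 3 to 0.0001 μM (3-fold steps). Cell Titer Glo luminescence normalized to DMSO-treated cells; EC50 from sigmoidal fit.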

BRD4 (BDII_E352-M457) = molecular target: T1, BRD4 (BDII_E352-M457) (Homo sapiens, UniProt O60885); assay: TR-FRET bromodomain binding assay, BRD4 second bromodomain
T1 construct: made in house
Summary of the method: (§1)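 His-tagged BRD4 BD1 (K57-E168) or BD2 (8 nM) with Eu-anti-His antibody and Alexa647-labeled BET-inhibitor probe (100 nM for BDI, 30 nM for BDII), pH 6.0 phosphate buffer, 2% DMSO, 1 h at room temperature. TR-FRET (Ex 340, Em 495/520); IC50 by 4-parameter fit, converted to Ki using probe Kd and concentration.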

BRD4 (BDI_K57-E168) = molecular target: T2, BRD4 (BDI_K57-E168) (Homo sapiens, UniProt O60885); assay: TR-FRET bromodomain binding assay, BRD4 first bromodomain; conditions: His-tagged BD1, 100 nM Alexa647 probe; Ki calculated from IC50; dilution protocol A-G
T2 construct: BD1: amino acids K57-E168; made in house
Summary of the method: as §1

| SMILES | EC50 [2] [nM] | Ki (BRD4 (BDII_E352-M457)) [nM] | Ki (BRD4 (BDI_K57-E168)) [nM] | % removed from study (morbidity or weight loss in excess of 20%) ([1]; 45 mg/kg PO) [%] | % TGI ([1]; 45 mg/kg PO) | % TGD (tumor growth delay) ([1]; 45 mg/kg PO) | % removed from study (morbidity or weight loss in excess of 20%) ([1]; 150 mg/kg PO) [%] | % TGI ([1]; 150 mg/kg PO) | % TGD (tumor growth delay) ([1]; 150 mg/kg PO) |
| --- | --- | --- | --- | --- | --- | --- | --- | --- | --- |
| Cc1[nH]c(-c2cc(S(C)(=O)=O)ccc2Oc2ccc(F)cc2F)c2c1C(=O)NCC2 [Example 98, 1-[2-(2,4-difluorophenoxy)-5-(methylsulfonyl)phenyl]-3-methyl-2,5,6,7-tetrahydro-4H-pyrrolo[3,4-c]pyridin-4-one] | 721 | 148 | 34.9 | 0 | 45** % | 53** % | 20 | 68*** % | 123** % |
| Cc1[nH]c(-c2cc(S(C)(=O)=O)ccc2Oc2ccc(F)cc2F)c2cn[nH]c(=O)c12 [Example 81, 5-[2-(2,4-difluorophenoxy)-5-(methylsulfonyl)phenyl]-7-methyl-2,6-dihydro-1H-pyrrolo[3,4-d]pyridazin-1-one] | 394 | 254 | 22.7 |  |  |  |  |  |  |
| CCOC(=O)c1cc2c(-c3ccc(-c4cc(C)n[nH]4)cc3)[nH]c(C)c2c(=O)[nH]1 [Example 8, ethyl 3-methyl-1-[4-(3-methyl-1H-pyrazol-5-yl)phenyl]-4-oxo-4,5-dihydro-2H-pyrrolo[3,4-c]pyridine-6-carboxylate] | 737 | 615 | 95.6 |  |  |  |  |  |  |
| Cc1[nH]c(-c2cc(F)ccc2OCC2CC2)c2cc(C(N)=O)[nH]c(=O)c12 [Example 70, 1-[2-(cyclopropylmethoxy)-5-fluorophenyl]-3-methyl-4-oxo-4,5-dihydro-2H-pyrrolo[3,4-c]pyridine-6-carboxamide] | > 3000 | 356 | 82.7 |  |  |  |  |  |  |
| Cc1[nH]c(-c2cc(CO)ccc2Oc2ccc(F)cc2F)c2c1C(=O)NCC2 [Example 103, 1-[2-(2,4-difluorophenoxy)-5-(hydroxymethyl)phenyl]-3-methyl-2,5,6,7-tetrahydro-4H-pyrrolo[3,4-c]pyridin-4-one] | 239 | 198 | 122 |  |  |  |  |  |  |
| Cc1[nH]c(-c2ccccc2Oc2ccccc2)c2cc(C(=O)N3CCC(O)CC3)[nH]c(=O)c12 [Example 30, 6-(4-hydroxypiperidine-1-carbonyl)-3-methyl-1-(2-phenoxyphenyl)-2H-pyrrolo[3,4-c]pyridin-4(5H)-one] | 1350 | 48.8 | 92.6 |  |  |  |  |  |  |
| Cc1[nH]c(-c2ccccc2Oc2ccccc2)c2cc(C(=O)N3CCN(C)CC3)[nH]c(=O)c12 [Example 16, 3-methyl-6-(4-methylpiperazine-1-carbonyl)-1-(2-phenoxyphenyl)-2H-pyrrolo[3,4-c]pyridin-4(5H)-one] | 616 | 170 | 32.7 |  |  |  |  |  |  |
| Cc1[nH]c(-c2ccccc2Oc2ccccc2)c2cc(C(=O)NCC3CNCC3(F)F)[nH]c(=O)c12 (stereo not drawn) [Example 59, N-[(4,4-difluoropyrrolidin-3-yl)methyl]-3-methyl-4-oxo-1-(2-phenoxyphenyl)-4,5-dihydro-2H-pyrrolo[3,4-c]pyridine-6-carboxamide] | 223 | 59.7 | 3.67 |  |  |  |  |  |  |
| COCc1cc2c(-c3ccccc3Oc3ccccc3)[nH]c(C)c2c(=O)[nH]1 [Example 44, 6-(methoxymethyl)-3-methyl-1-(2-phenoxyphenyl)-2,5-dihydro-4H-pyrrolo[3,4-c]pyridin-4-one] | 233 | 424 | 66.7 |  |  |  |  |  |  |
| CCOC(=O)c1cc2c(-c3cc(F)ccc3OCC3CC3)[nH]c(C)c2c(=O)[nH]1 [Example 69, ethyl 1-[2-(cyclopropylmethoxy)-5-fluorophenyl]-3-methyl-4-oxo-4,5-dihydro-2H-pyrrolo[3,4-c]pyridine-6-carboxylate] | > 3000 | 416 | 52.2 |  |  |  |  |  |  |
| Cc1[nH]c(-c2ccccc2Oc2ccccc2)c2cc(C(=O)NC3CCOCC3)[nH]c(=O)c12 [Example 38, 3-methyl-4-oxo-1-(2-phenoxyphenyl)-N-(tetrahydro-2H-pyran-4-yl)-4,5-dihydro-2H-pyrrolo[3,4-c]pyridine-6-carboxamide] | 300 | 29 | 16.6 |  |  |  |  |  |  |
| COC(=O)C1Cc2c(-c3ccccc3Oc3ccccc3)[nH]c(C)c2C(=O)N1 (stereo not drawn) [Example 97, methyl 3-methyl-4-oxo-1-(2-phenoxyphenyl)-4,5,6,7-tetrahydro-2H-pyrrolo[3,4-c]pyridine-6-carboxylate] | > 3000 | 157 | 24.3 |  |  |  |  |  |  |

Compounds with a lower EC50 [2], results first:

| EC50 [2] [nM] | Ki (BRD4 (BDII_E352-M457)) [nM] | Ki (BRD4 (BDI_K57-E168)) [nM] | SMILES | % removed from study (morbidity or weight loss in excess of 20%) ([1]; 45 mg/kg PO) [%] | % TGI ([1]; 45 mg/kg PO) | % TGD (tumor growth delay) ([1]; 45 mg/kg PO) | % removed from study (morbidity or weight loss in excess of 20%) ([1]; 150 mg/kg PO) [%] | % TGI ([1]; 150 mg/kg PO) | % TGD (tumor growth delay) ([1]; 150 mg/kg PO) |
| --- | --- | --- | --- | --- | --- | --- | --- | --- | --- |
| 210 | 11.3 | 30.1 | CO[C@H]1C[C@H](NC(=O)c2cc3c(-c4ccccc4Oc4ccccc4)[nH]c(C)c3c(=O)[nH]2)C1 [Example 50, N-(trans-3-methoxycyclobutyl)-3-methyl-4-oxo-1-(2-phenoxyphenyl)-4,5-dihydro-2H-pyrrolo[3,4-c]pyridine-6-carboxamide] |  |  |  |  |  |  |
| 30 | 8.8 | 2.12 | CCOC(=O)c1cc2c(-c3cc(CS(C)(=O)=O)ccc3Oc3ccc(F)cc3F)[nH]c(C)c2c(=O)[nH]1 [Example 68, ethyl 1-{2-(2,4-difluorophenoxy)-5-[(methylsulfonyl)methyl]phenyl}-3-methyl-4-oxo-4,5-dihydro-2H-pyrrolo[3,4-c]pyridine-6-carboxylate] |  |  |  |  |  |  |
| 92.2 | 24.4 | 3.26 | Cc1[nH]c(-c2cc(NS(C)(=O)=O)ccc2Oc2ccc(F)cc2F)c2cn[nH]c(=O)c12 [Example 80, N-[4-(2,4-difluorophenoxy)-3-(7-methyl-1-oxo-2,6-dihydro-1H-pyrrolo[3,4-d]pyridazin-5-yl)phenyl]methanesulfonamide] |  |  |  |  |  |  |
| 77.6 | 91.3 | 12.3 | CCOC(=O)c1cc2c(-c3cc(N)ccc3Oc3ccc(F)cc3F)[nH]c(C)c2c(=O)[nH]1 [Example 4, ethyl 1-[5-amino-2-(2,4-difluorophenoxy)phenyl]-3-methyl-4-oxo-4,5-dihydro-2H-pyrrolo[3,4-c]pyridine-6-carboxylate] |  |  |  |  |  |  |
| 80.5 | 78 | 9.45 | Cc1[nH]c(-c2ccccc2Oc2ccccc2)c2cc(-c3nc(-c4ccccn4)no3)[nH]c(=O)c12 [Example 67, 3-methyl-1-(2-phenoxyphenyl)-6-(3-(pyridin-2-yl)-1,2,4-oxadiazol-5-yl)-2H-pyrrolo[3,4-c]pyridin-4(5H)-one] |  |  |  |  |  |  |
| 25.7 | 15.9 | 2.15 | CCS(=O)(=O)Nc1ccc(Oc2ccccc2)c(-c2[nH]c(C)c3c(=O)[nH]c(C(=O)OC)cc23)c1 [Example 7, methyl 1-(5-(ethylsulfonamido)-2-phenoxyphenyl)-3-methyl-4-oxo-4,5-dihydro-2H-pyrrolo[3,4-c]pyridine-6-carboxylate] |  |  |  |  |  |  |
| 138 | 70.2 | 3.43 | Cc1[nH]c(-c2ccccc2Oc2ccccc2)c2cc(C(=O)NC3CN(C)C3)[nH]c(=O)c12 [Example 49, 3-methyl-N-(1-methylazetidin-3-yl)-4-oxo-1-(2-phenoxyphenyl)-4,5-dihydro-2H-pyrrolo[3,4-c]pyridine-6-carboxamide] |  |  |  |  |  |  |
| 32.9 | 3.31 | 1.23 | CCOC(=O)c1cc2c(-c3cc(NS(=O)(=O)CC)ccc3Oc3ccccc3)[nH]c(C)c2c(=O)[nH]1 [Example 6, ethyl 1-(5-(ethylsulfonamido)-2-phenoxyphenyl)-3-methyl-4-oxo-4,5-dihydro-2H-pyrrolo[3,4-c]pyridine-6-carboxylate] |  |  |  |  |  |  |
| 51.8 | 9.47 | 3.66 | CCS(=O)(=O)Nc1ccc(Oc2ccccc2)c(-c2[nH]c(C)c3c(=O)[nH]ncc23)c1 [Example 75, N-[3-(7-methyl-1-oxo-2,6-dihydro-1H-pyrrolo[3,4-d]pyridazin-5-yl)-4-phenoxyphenyl]ethanesulfonamide] |  |  |  |  |  |  |
